Test results as given in publication PMC11212140, “Molecular Bidents with Two Electrophilic Warheads as a New Pharmacological Modality” (ACS Central Science, 2024).

Columns and labels:
Assay in all cases: KiNativ profiling in H3255 cells
Type in all cases: cell-based, human
[1] = system: MAP3K2, MAP3K3; settings: 2.5 µM; Lys2; DIKGANILR
Method: (§1) H3255 cells were plated with 6.5x10^6 per condition in fresh media in 15 cm plates and treated the 80% confluency for 2 hours with DMSO or 2.5 μM of ZNL-0056. To harvest cells, plates were washed 3 times with cold PBS, then collected by scraping into 4 mL of cold PBS containing protease and phosphatase inhibitors. Cells were pelleted by centrifugation at 1350 g at 4 ℃ for 5 minutes and immediately frozen in liquid nitrogen. The frozen samples were sent to ActivX Biosciences (La Jolla, CA) for the remainder of the KiNativ profiling experiment4. […]

[2] = system: T1, ARAF; settings: 2.5 µM; Lys2; DLKSNNIFLHEGLTVK
T1 construct: purchased ActivX Biosciences (KiNativ)
Method: as §1

[3] = system: T2, NEK3; settings: 2.5 µM; Activation Loop; SKNIFLTQNGK
T2 construct: purchased ActivX Biosciences (KiNativ)
Method: as §1

[4] = system: T3, PHKg2; settings: 2.5 µM; Lys1; ATGHEFAVKIMEVTAER
T3 construct: purchased ActivX Biosciences (KiNativ)
Method: as §1

[5] = system: T4, CK2a1; settings: 2.5 µM; Protein Kinase Domain; GGPNIITLADIVKDPVSR
T4 construct: purchased ActivX Biosciences (KiNativ)
Method: as §1

[6] = system: T5, EphA2; settings: 2.5 µM; Activation Loop; VLEDDPEATYTTSGGKIPIR
T5 construct: purchased ActivX Biosciences (KiNativ)
Method: as §1

[7] = system: T6, ZC2/TNIK; settings: 2.5 µM; Lys1; TGQLAAIKVMDVTGDEEEEIKQEINMLKK
T6 construct: purchased ActivX Biosciences (KiNativ)
Method: as §1

[8] = system: T7, p70S6Kb; settings: 2.5 µM; Lys2; DLKPENIMLSSQGHIK
T7 construct: purchased ActivX Biosciences (KiNativ)
Method: as §1

[9] = system: T8, MST2; settings: 2.5 µM; Lys1; ESGQVVAIKQVPVESDLQEIIK
T8 construct: purchased ActivX Biosciences (KiNativ)
Method: as §1

[10] = system: T9, CLK3; settings: 2.5 µM
T9 construct: purchased ActivX Biosciences (KiNativ)
Method: as §1

[11] = system: T10, SMG1; settings: 2.5 µM, ATP
T10 construct: purchased ActivX Biosciences (KiNativ)
Method: as §1

[12] = system: T11, CASK; settings: 2.5 µM; Lys1; ETGQQFAVKIVDVAK
T11 construct: purchased ActivX Biosciences (KiNativ)
Method: as §1

[13] = system: CK1d, CK1e; settings: 2.5 µM; Lys2; DVKPDNFLMGLGKK
Method: as §1

[14] = system: T12, LATS2; settings: 2.5 µM
T12 construct: purchased ActivX Biosciences (KiNativ)
Method: as §1

[15] = system: T13, PIP4K2A; settings: 2.5 µM, ATP
T13 construct: purchased ActivX Biosciences (KiNativ)
Method: as §1

[16] = system: T14, SIK; settings: 2.5 µM; Lys1; TQVAIKIIDK
T14 construct: purchased ActivX Biosciences (KiNativ)
Method: as §1

[17] = system: MER, TYRO3; settings: 2.5 µM; Activation Loop; KIYSGDYYR
Method: as §1

[18] = system: NDR1, NDR2; settings: 2.5 µM; Activation Loop; LSDFGLCTGLKK
Method: as §1

[19] = system: T15, PFTAIRE1; settings: 2.5 µM; Lys1; LVALKVIR
T15 construct: purchased ActivX Biosciences (KiNativ)
Method: as §1

[20] = system: T16, CDC2; settings: 2.5 µM
T16 construct: purchased ActivX Biosciences (KiNativ)
Method: as §1

[21] = system: T17, ZAK; settings: 2.5 µM; Lys1; WISQDKEVAVKK
T17 construct: purchased ActivX Biosciences (KiNativ)
Method: as §1

[22] = system: T18, PLK2; settings: 2.5 µM; Lys2; DLKLGNFFINEAMELK
T18 construct: purchased ActivX Biosciences (KiNativ)
Method: as §1

[23] = system: T19, MST3; settings: 2.5 µM; Lys2; DIKAANVLLSEHGEVK
T19 construct: purchased ActivX Biosciences (KiNativ)
Method: as §1

[24] = system: T20, CDK2; settings: 2.5 µM
T20 construct: purchased ActivX Biosciences (KiNativ)
Method: as §1
(§2) Human EGFR kinase domain (residues 696-1022) with T790M and V948R mutations was cloned with an N-terminal, protease cleavable His -GST tag. Recombinant protein was expressed in SF9 insect cells using baculovirus generated from the pFastBac system (Thermo Fisher) .
(§3) Briefly, cells at a density of ~2x10^6 cells/mL were infected with 1% (v/v) virus stock and grown for ~72 hours before harvesting and freezing the cell pellet . Infected cells were lysed in buffer A (50 mM Tris pH 8.0, 500 mM NaCl, 5% glycerol, 0.5 mM Tris(2-carboxyethyl)phosphine [TCEP]), ultracentrifuged at >200,000 rcf for 1 h, and the supernatant flo wed through Ni-NTA resin by gravity. The resin was washed with buffer A supplemented with 40 mM imidazole by […]

[25] = system: T21, MET; settings: 2.5 µM; Activation Loop; DMYDKEYYSVHNK
T21 construct: purchased ActivX Biosciences (KiNativ)
Method: as §1, §2, §3

[26] = system: FGFR1, FMS, PDGFRb, TYRO3; settings: 2.5 µM; Lys1; VAVKMLK
Method: as §1, §2, §3

[27] = system: T22, LKB1; settings: 2.5 µM; Lys2; DIKPGNLLLTTGGTLK
T22 construct: purchased ActivX Biosciences (KiNativ)

[28] = system: T23, JAK1 domain2; settings: 2.5 µM
T23 construct: JAK1 domain2; purchased ActivX Biosciences (KiNativ)

[29] = ATP Loop, YEIVGNLGEGTFGKVVECLDHAR
[30] = Lys2, FLHENQLTHTDLKPENILFVNSEFETLYNEHK
[31] = Protein Kinase Domain, KPLFHGDSEIDQLFR
[32] = Activation Loop, IGDFGLTKAIETDKEYYTVK
[33] = Lys1, YDPEGDNTGEQVAVKSLKPESGGNHIADLKK

Row | SMILES | Inhibition [1] [%] | Inhibition [2] [%] | Inhibition [3] [%] | Inhibition [4] [%] | Inhibition [5] [%] | Inhibition [6] [%] | Inhibition [7] [%] | Inhibition [8] [%] | Inhibition [9] [%] | Inhibition [10, 29] [%] | Inhibition [10, 30] [%] | Inhibition ([11]; DTVTIHSVGGTITILPTKTKPK) [%] | Inhibition ([11]; SYPYLFKGLEDLHLDER) [%] | Inhibition [12] [%] | Inhibition [13] [%] | Inhibition ([14]; Lys1, VDTHALYAMKTLR) [%] | Inhibition ([14]; Lys2, DIKPDNILIDLDGHIK) [%] | Inhibition ([15]; AKELPTLKDNDFINEGQK) [%] | Inhibition ([15]; YIIKTITSEDVAEMHNILK) [%] | Inhibition [16] [%] | further results
1 | C=CC(=O)Nc1cc(C(=O)Nc2nc3cccc(C)c3n2[C@@H]2CCCCN(C(=O)C=C)C2)cs1 [ZNL-0056] | -6.0 | 11.3 | -5.3 | -4.2 | 6.3 | 13.2 | 32.8 | -8.5 | -6.8 | 10.0 | 13.8 | -33.9 | -11.5 | -14.3 | 10.8 | 15.4 | 23.5 | -0.9 | -4.5 | 28.2 | Inhibition [17]: 2.6%; Inhibition [18]: -7.6%; Inhibition [19]: 20.8%; Inhibition ([20]; Lys1, TTGQVVAMKK): -18.6%; Inhibition ([20]; Lys2, DLKPQNLLIDDK): -1.3%; Inhibition [20, 31]: 2.3%; Inhibition [21]: 12.1%; Inhibition [22]: 18.8%; Inhibition [23]: -1.1%; Inhibition ([24]; Lys1, LTGEVVALKK): 0.6%; Inhibition ([24]; Lys2, DLKPQNLLINTEGAIK): 13.1%; Inhibition [25]: -17.6%; Inhibition [26]: -17.7%; Inhibition [27]: 0.756%; Inhibition [28, 32]: 4.7%; Inhibition [28, 33]: 4.4%
2 | C=CC(=O)Nc1cc(Nc2nccc(-c3cn(C)c4ccccc34)n2)c(OC)cc1N(C)CCN(C)C [Osimertinib, osimertinib, reference compound] | -6.6 | -20.1 | -0.9 | -24.7 | -0.558 | 18.1 | 19.5 | -28.8 | -13.5 | -8.7 | -18.4 | -6.7 | -44.3 | 6.8 | 6.2 | -12.9 | -15.6 | -3.2 | -14.3 | 48.0 | Inhibition [17]: 33.0%; Inhibition [18]: -22.1%; Inhibition [19]: 2.2%; Inhibition ([20]; Lys1, TTGQVVAMKK): -1.3%; Inhibition ([20]; Lys2, DLKPQNLLIDDK): 29.6%; Inhibition [20, 31]: -18.5%; Inhibition [21]: -16.3%; Inhibition [22]: 10.4%; Inhibition [23]: -15.5%; Inhibition ([24]; Lys1, LTGEVVALKK): 14.1%; Inhibition ([24]; Lys2, DLKPQNLLINTEGAIK): 9.6%; Inhibition [25]: -2.3%; Inhibition [26]: 0.6%; Inhibition [27]: -3.9%; Inhibition [28, 32]: -24.5%; Inhibition [28, 33]: -22.2%
